{"source": "paper PMC6363759", "about": "“Decreased complexity of glucose dynamics in diabetes in rhesus monkeys” (Scientific Reports, 2019)", "key": {"[1]": {"system": "diabetic rhesus monkeys", "assay": "Multiscale entropy (MSE) analysis of glucose dynamics before and during liraglutide treatment", "assay_type": "in vivo", "details": "15 µg/kg sc daily", "description": "Details about the definition and calculation of MSE are given in the Supplementary Materials and Methods. MSE-AUC10s-30m is the area under an MSE curve between scale factors of 10 seconds and 30 minutes, and was used as a single-number summary of the curve.\nFive diabetic animals were treated with liraglutide for four weeks, beginning during the sixth week of monitoring. […] For each animal the period of the same length immediately preceding the start of liraglutide was used as the comparator (‘pre-liraglutide’) period.\nSupplementary Materials and Methods\nMultiscale entropy analysis, introduced by Costa et al1, is built upon a quantity called sample entropy2, which we describe first. The sample entropy of a regularly spaced time series of length N is defined using two parameters: a subsequence length, m, and a similarity threshold, r. Consider any two subsequences of length m of the time series. […]\nstart at the same position.) The subsequences are said to match if the i-th element of one subsequence differs from the i-th element of the other by no more than r, for all ݅=1,…,݉. Let B denote the number of matching pairs of subsequences when we consider all possible pairs of length- m subsequences from the first […] observations of the series. Next, repeat the process of counting matches, but use subsequences of length m+1instead of m, and consider all possible such subsequences taken from the full series of N observations. Let A denote the number of matching pairs among them.\nThen the sample entropy is the negative natural logarithm of the ratio A/B. See Richman and Moorman 2 for details and explicit formulas. […]\nMultiscale entropy calculates this sample entropy after applying various amounts of averaging to the original time series. […] The result is a new time series of averages, for which sample entropy is calculated. […]\nApplication of MSE analysis requires choosing values for the parameters m and r, and the set of scale factors to use. […] The smallest possible scale fact or is set by the time resolution of the series being analyzed, in our case 1 second. […]"}, "[2]": {"system": "diabetic rhesus monkeys", "assay": "Glucose lowering by liraglutide detected by continuous glucose monitoring (CGM)", "assay_type": "in vivo", "details": "for Mean glucose, With liraglutide: CGM over treatment period (16 to 28 days)", "description": "Vehicle used was 1 mM Sodium Phosphate (pH = 8) and 5% Mannitol. […] Blood samples were obtained at 0.08, 0.25, 0.50, 1.00, 2.00, 4.00, 6.00, 7.00, and 24.00 hours post-dose. […] Compound was given daily subcutaneously at 15 µg/kg in the morning each day (~8–9 am). Lira dosing started on Day 39 of the CGM period and continued for 28 days.\nSurgery procedure: Rhesus monkeys underwent surgery for placement of the DSI HD-XG glucose sensor into the right carotid artery. Animals were initially sedated with 10 mg/kg ketamine IM, intubated and anesthesia was maintained through isoflurane inhalation. All monkeys received 0.01 mg/kg Buprenorphine IM, 4.4 mg/kg carprofen SC and 20 mg/kg ceftiofur SC preoperatively. A 3–4 centimeter skin incision was made on the right, mid-lateral neck over the carotid artery where the pulse was palpated. A 1–2 centimeter segment of the right carotid artery was isolated and a tight ligature was placed distally towards the head around the exposed section of vessel. A second ligature was pre-placed, but not tightened, proximally towards the chest around the exposed section of vessel to prevent excessive bleeding when the vessel was cut. A small incision was made in the artery between these two ligatures. The sensor was inserted into the lumen of the vessel and advanced towards the heart approximately 8–9 centimeters. The pre-placed ligature was tightened to prevent bleeding around the sensor. A third ligature was secured around the sensor between the previously placed ligatures and further secured around the vessel to prevent the sensor from migrating. The telemetry body was secured to the underlying musculature in the right lateral neck near the sensor entry into the artery. Monkeys received 2 mg/kg bupivacaine locally at the skin incision. All incisions were then closed routinely. The animals were removed from the isoflurane anesthesia to allow for recovery and were monitored until they were sternal and stable. Animals received 4.4 mg/kg carprofen PO or IM once the day following surgery and were observed daily for the next 10 days to assure a normal recovery. A reference electrode and telemetry body was placed in the subcutaneous tissue near the catheter entry point as recommended by DSI.\nThe implanted sensor transmits its signal to a repeater located on the same animal on the collar. That repeater then immediately retransmits the HD-XG data on a different frequency to a repeater receiver up to 8 meters away. […] Glucose sensor values were reported once per second."}, "[3]": {"details": "in the clinic, cited from earlier work", "from_the_text": "The sixth diabetic animal, 161281, was not treated because it was already receiving insulin."}}, "data": [{"smiles": "CCCCCCCCCCCCCCCC(=O)N[C@@H](CCC(=O)NCCCC[C@H](NC(=O)[C@H](C)NC(=O)[C@H](C)NC(=O)[C@H](CCC(N)=O)NC(=O)CNC(=O)[C@H](CCC(=O)O)NC(=O)[C@H](CC(C)C)NC(=O)[C@H](Cc1ccc(O)cc1)NC(=O)[C@H](CO)NC(=O)[C@H](CO)NC(=O)[C@@H](NC(=O)[C@H](CC(=O)O)NC(=O)[C@H](CO)NC(=O)[C@@H](NC(=O)[C@H](Cc1ccccc1)NC(=O)[C@@H](NC(=O)CNC(=O)[C@H](CCC(=O)O)NC(=O)[C@H](C)NC(=O)[C@@H](N)Cc1cnc[nH]1)[C@@H](C)O)[C@@H](C)O)C(C)C)C(=O)N[C@@H](CCC(=O)O)C(=O)N[C@@H](Cc1ccccc1)C(=O)N[C@H](C(=O)N[C@@H](C)C(=O)N[C@@H](Cc1c[nH]c2ccccc12)C(=O)N[C@@H](CC(C)C)C(=O)N[C@H](C(=O)N[C@@H](CCCNC(=N)N)C(=O)NCC(=O)N[C@@H](CCCNC(=N)N)C(=O)NCC(=O)O)C(C)C)[C@@H](C)CC)C(=O)O", "note": "[liraglutide]", "values": [{"measurement": "MSE curve of glucose, treatment vs pre-treatment period", "setting": "[1]; animals 161286 and 161288", "value": "higher"}, {"measurement": "complexity of glucose dynamics in diabetic animals", "setting": "[1]; five diabetic rhesus, 2–4 weeks of treatment", "value": "did not consistently change complexity"}, {"measurement": "MSE of glucose, treatment vs pre-treatment period", "setting": "[1]; three of five treated diabetic animals, 16 to 28 days", "value": "essentially no difference"}, {"measurement": "afternoon peak in glucose", "setting": "[2]; all five treated diabetic rhesus, mean glucose by time of day, before and during treatment", "value": "reduced"}, {"measurement": "Mean glucose, With liraglutide", "setting": "[2]; diabetic rhesus animal 161282, 15 µg/kg sc daily", "value": 208.2, "unit": "mg/dL"}, {"measurement": "Mean glucose, With liraglutide", "setting": "[2]; diabetic rhesus animal 161283, 15 µg/kg sc daily", "value": 109.6, "unit": "mg/dL"}, {"measurement": "Mean glucose, With liraglutide", "setting": "[2]; diabetic rhesus animal 161284, 15 µg/kg sc daily", "value": 183.1, "unit": "mg/dL"}, {"measurement": "Mean glucose, With liraglutide", "setting": "[2]; diabetic rhesus animal 161286, 15 µg/kg sc daily", "value": 236.6, "unit": "mg/dL"}, {"measurement": "Mean glucose, With liraglutide", "setting": "[2]; diabetic rhesus animal 161288, 15 µg/kg sc daily", "value": 140.9, "unit": "mg/dL"}, {"measurement": "coefficient of variation of glucose (standard deviation as a proportion of the mean), treatment vs pre-treatment", "setting": "[2]; five diabetic rhesus, 15 µg/kg sc daily", "value": "no consistent change"}, {"measurement": "decline of mean glucose", "setting": "[2]; range over all five treated diabetic rhesus, 15 µg/kg sc daily, treatment vs pre-treatment period", "value": "5–42%"}, {"measurement": "time of maximum concentrations post dosing", "setting": "[3]; subcutaneous administration", "value": "8 to 12", "unit": "h"}, {"measurement": "mean peak (Cmax) exposure", "setting": "[3]; subcutaneous single dose of 0.6 mg", "value": 35, "unit": "ng/mL"}]}]}
